In assay [1] the test system is Saccharomyces cerevisiae. The assay is described as follows: Increase of MRPS28 gene expression in wild-type Saccharomyces cerevisiae transformed with overexpression plasmids by microarray. The class given is functional.
Assay [2] has as its target T1, Translation factor GUF1, mitochondrial (Saccharomyces cerevisiae S288c, UniProt P46943).
T1 sequence (P46943 whole entry): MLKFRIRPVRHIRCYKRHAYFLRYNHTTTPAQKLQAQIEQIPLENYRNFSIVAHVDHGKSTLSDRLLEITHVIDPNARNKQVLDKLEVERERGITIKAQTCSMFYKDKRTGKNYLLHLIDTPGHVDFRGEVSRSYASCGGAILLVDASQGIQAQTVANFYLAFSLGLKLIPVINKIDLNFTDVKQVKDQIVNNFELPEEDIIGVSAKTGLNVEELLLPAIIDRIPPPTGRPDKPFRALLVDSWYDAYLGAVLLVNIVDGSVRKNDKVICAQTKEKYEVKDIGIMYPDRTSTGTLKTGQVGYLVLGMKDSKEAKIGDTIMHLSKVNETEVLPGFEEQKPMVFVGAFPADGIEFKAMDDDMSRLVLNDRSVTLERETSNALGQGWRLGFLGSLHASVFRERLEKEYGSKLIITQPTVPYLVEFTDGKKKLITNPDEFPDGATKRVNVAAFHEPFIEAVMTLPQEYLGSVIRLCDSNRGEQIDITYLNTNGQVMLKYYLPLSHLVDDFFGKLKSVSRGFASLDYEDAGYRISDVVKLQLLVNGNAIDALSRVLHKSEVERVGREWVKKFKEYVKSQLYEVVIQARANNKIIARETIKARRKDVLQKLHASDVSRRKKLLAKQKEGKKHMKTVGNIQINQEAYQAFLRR
Nature of the assay: Inhibition of yeast Guf1.

For assay [3], the system named is Saccharomyces cerevisiae. Nature of the assay: Increase of MDL1 gene expression in wild-type Saccharomyces cerevisiae transformed with overexpression plasmids by microarray. The class given is functional.
The subject of assay [4] is Saccharomyces cerevisiae. The assay is described as follows: Increase of GUF1 gene expression in wild-type Saccharomyces cerevisiae transformed with overexpression plasmids by microarray. In kind it is functional.
For assay [5], the system named is Saccharomyces cerevisiae. Nature of the assay: Decrease of FET4 gene expression in wild-type Saccharomyces cerevisiae transformed with overexpression plasmids by microarray. The class given is functional.
For assay [6], the system named is Saccharomyces cerevisiae. The assay is described as follows: Decrease of YJL051W gene expression in wild-type Saccharomyces cerevisiae transformed with overexpression plasmids by microarray. In kind it is functional.
Assay [7] relates to Saccharomyces cerevisiae. Nature of the assay: Increase of MAM1 gene expression in wild-type Saccharomyces cerevisiae transformed with overexpression plasmids by microarray. The class given is functional.
In assay [8] the test system is Saccharomyces cerevisiae. The assay is described as follows: Increase of PET111 gene expression in wild-type Saccharomyces cerevisiae transformed with overexpression plasmids by microarray. In kind it is functional.
Assay [9] relates to Saccharomyces cerevisiae. The assay is described as follows: Increase of HMI1 gene expression in wild-type Saccharomyces cerevisiae transformed with overexpression plasmids by microarray. The class given is functional.
Assay [10] deals with Saccharomyces cerevisiae. The assay is described as follows: Increase of FMP38 gene expression in wild-type Saccharomyces cerevisiae transformed with overexpression plasmids by microarray. The class given is functional.
Assay [11] relates to Saccharomyces cerevisiae. The assay is described as follows: Decrease of SGN1 gene expression in wild-type Saccharomyces cerevisiae transformed with overexpression plasmids by microarray. In kind it is functional.
Assay [12] relates to Saccharomyces cerevisiae. The assay is described as follows: Increase of YDR514C gene expression in wild-type Saccharomyces cerevisiae transformed with overexpression plasmids by microarray. In kind it is functional.
In assay [13] the test system is Saccharomyces cerevisiae. The assay is described as follows: Decrease of YMD8 gene expression in wild-type Saccharomyces cerevisiae transformed with overexpression plasmids by microarray. The class given is functional.
Assay [14] has as its system Saccharomyces cerevisiae. Nature of the assay: Decrease of YDR222W gene expression in wild-type Saccharomyces cerevisiae transformed with overexpression plasmids by microarray. The class given is functional.
Assay [15] has as its system Saccharomyces cerevisiae. The assay is described as follows: Decrease of YKR75C gene expression in wild-type Saccharomyces cerevisiae transformed with overexpression plasmids by microarray. In kind it is functional.
The test system of assay [16] is Saccharomyces cerevisiae. The assay is described as follows: Increase of SUV3 gene expression in wild-type Saccharomyces cerevisiae transformed with overexpression plasmids by microarray. The class given is functional.
The subject of assay [17] is Saccharomyces cerevisiae. The assay is described as follows: Decrease of RIM11 gene expression in wild-type Saccharomyces cerevisiae transformed with overexpression plasmids by microarray. In kind it is functional.
Assay [18] has as its system Saccharomyces cerevisiae. Nature of the assay: Decrease of HOS1 gene expression in wild-type Saccharomyces cerevisiae transformed with overexpression plasmids by microarray. The class given is functional.
In assay [19] the test system is Saccharomyces cerevisiae. The assay is described as follows: Increase of YRR1 gene expression in wild-type Saccharomyces cerevisiae transformed with overexpression plasmids by microarray. The class given is functional.

For the compound `O=C1C(Nc2ccccc2)=CC(=O)c2ncccc21`, the “fold change (FC)” value is 2.1 in the assay on Saccharomyces cerevisiae [1]; 2.2 in the assay with Saccharomyces cerevisiae [3]; 5 with Saccharomyces cerevisiae [4]; -4.3 in the assay on Saccharomyces cerevisiae [5]; -2.1 in the assay on Saccharomyces cerevisiae [6]; 2.1 in the assay with Saccharomyces cerevisiae [7]. For the same compound, the “fold change (FC)” value with Saccharomyces cerevisiae [8] is recorded as 2.3; in the assay on Saccharomyces cerevisiae [9], 2.9; in the assay with Saccharomyces cerevisiae [10], 3.1; with Saccharomyces cerevisiae [11], -2.1; in the assay with Saccharomyces cerevisiae [12] it was 2.7; with Saccharomyces cerevisiae [13] it was -2. The “fold change (FC)” value in the assay on Saccharomyces cerevisiae [14] is given as -2.4; in the assay with Saccharomyces cerevisiae [15] it was -2.1; in the assay on Saccharomyces cerevisiae [16] it was 2.4; with Saccharomyces cerevisiae [17] it was -3.3; in the assay on Saccharomyces cerevisiae [18], -2.4; in the assay on Saccharomyces cerevisiae [19], 2.8. Further, in [2], the IC50 was 300 µM.

These data come from ChEMBL document CHEMBL1250443, “Microarray-based method for monitoring yeast overexpression strains reveals small-molecule targets in TOR pathway” (Nat Chem Biol, 2006).
